# Test results from publication PMC10252837, “A Novel Time-Resolved Fluorescence Resonance Energy Transfer Assay for the Discovery of Small-Molecule Inhibitors of HIV-1 Tat-Regulated Transcription” (International Journal of Molecular Sciences, 2023).
# “Also recorded” adds a separate entry of the source.
# Assays:
# HIV-1AD8 (R5-tropic) = experiment: HIV-1 replication assay in PBMCs (p24), HIV-1AD8; format: cell-based; conditions: PHA-preactivated PBMCs, MOI 0.1, 72 h; 460-G06 at 12.5-100 nM
# Procedure: (§1) Figure 6 Phytohemagglutinin-preactivated peripheral blood mononuclear cells were infected with HIV-1NL4-3 (A) or HIV-1AD8 (B) at an MOI of 0.1 for 2 h and then treated with compounds at indicated concentrations for 72 h. […] The data are expressed as the mean ± SD (n = 3). * p < 0.05 indicates a comparison with the cells treated with DMSO (vehicle). ARVs, anti-retroviral drugs; EFV, efavirenz; DOL, dolutegravir; AZT, azidothymidine.
# (§2) The experiments were performed in triplicate.
# [1] = tested on: Tat activity (Tat-induced viral transcription); experiment: microbe, parasite or virus in culture; format: cell-based, HIV-1
# Procedure: (§3) (A) (Upper panel) Doxycycline (Dox)-inducible Tat-expressing bl-DTR cells cultured in 96-well plates treated with two-fold serial dilutions of each compound in the presence of Dox (50 ng/mL). At 24 h after treatment, the activity of firefly luciferase (F-Luc), indicating Tat activity, was determined as described in the Materials and Methods section. (Bottom panel) TZM-bl cells were treated with two-fold serial dilutions of the indicated compound and then infected with the HIV-1NL4-3 strain at a multiplicity of infection (MOI) of 1. At 24 h after infection, the viral infectivity and cell viability were determined as described in the Materials and Methods section. […] (B) 2 × 10^5 TZM-bl cells growing in 6-well plates were infected with HIV-1 (MOI = 1), transfected with a Tat-expressing plasmid (2 μg) or treated with PMA ([…]) upon indicated compounds at indicated concentrations, respectively. At 24 h after treatment, LTR promoter activity was determined via a Bright-Glo Luciferase Assay Kit. The relative activities are represented as the mean ± SD (n = 3) compared with the DMSO vesicle. (C) The biotinylated TAR RNA (2 nM) was incubated with ARM peptide (100 nM) in the presence of increasing amounts of the hit compound and separated on a 3–12% native polyacrylamide gel. The mobility of biotinylated TAR RNA was detected by chemiluminescence.
# The inhibitory effect of hit compounds on Tat-mediated transcription was determined using doxycycline (Dox)-inducible Tat-expressing TZM-bl cells that express the LTR-driven firefly luciferase (F-Luc) gene under the control of Tat upon Dox treatment, as described previously but with minor modifications. In brief, 1 × 10^4 of the cells were cultured in 96-well plates, treated with compounds at a concentration of 10 µM (in the second round of screening), and then treated with Dox (final concentration: 50 ng/mL). After 24 h, the inhibitory effect of the hit compounds on Tat activity was determined by measuring F-Luc activity using a Bright-Glo Luciferase Assay Kit (Promega, Madison, WI, USA). For the dose–response assay, cells cultured in 100 μL medium were treated with 50 μL of 1:2 serially diluted compounds at concentrations ranging from 0 to 12.5 µM and then treated with 50 μL of Dox (final concentration: 50 ng/mL). At 24 h post-treatment, the F-Luc activity was determined as described above. All luminescence assays were carried out in a SpectraMax Paradigm Microplate Reader (Molecular Devices, San Jose, CA, USA), and the data were expressed as a relative percentage (%) compared to the DMSO control (vehicle) in the presence of Dox. The experiments were performed in triplicate.
# TAR RNA = experiment: RNA gel mobility shift assay (biotinylated TAR RNA and ARM peptide); format: binding, HIV-1; conditions: 2 nM biotinylated TAR RNA, 100 nM ARM peptide
# Procedure: To determine the inhibitory effect of hit compounds on the Tat (ARM)-TAR RNA interaction, a gel shift assay was carried out using the LightShift Chemiluminescent RNA EMSA Kit (Thermo Scientific) according to the manufacturer’s instructions, but with minor modifications suitable for our experiment. Briefly, 2 nM of 5′-biotinylated TAR RNA (nt 31) and 100 nM of ARM peptide were incubated with increasing amounts of hit compounds in the 1× REMSA binding buffer (10 mM HEPES pH 7.5, 10 mM MgCl2, 5 mM KCl, 1 mM DTT, and v/v 5 % glycerol) supplemented with 8 units/reaction of RNase OUT (Invitrogen) (final: 20 µL) at 20 °C for 20 min. Subsequently, the reaction was separated on a 3–12% native gradient PAGE gel. The RNA was then transferred to a nylon membrane to detect the mobility-shifted biotinylated TAR RNA using StAV-horseradish peroxidase conjugate. Chemiluminescence was detected using a GBox Chemi chemi-luminometer (Syngene, Fredrick, MD, USA).
# in vitro = conditions: human
# Procedure: as §3
# (§4) To determine the inhibitory effect of hit compounds on HIV-1 infection, we used TZM-bl cells (also referred to as JC53BL-13), which express HIV-1 receptors and contain the LTR-driven F-Luc gene controlled by HIV-1 infection, as described previously but with some minor modifications. Briefly, 1 × 10^4 TZM-bl cells cultured on 96-well plates were treated in triplicate wells with 1:2 serially diluted compounds at concentrations ranging from 0 to 12.5 µM. […] At 24 h after infection, the inhibitory effect of the hit compounds on infectivity was determined using the Bright-Glo Luciferase Assay Kit (Promega). The dose–response data are expressed as a relative percentage compared to the DMSO control (vehicle). The inhibitory effects of the hit compounds on HIV-1 replication were determined as previously described. […] After infection, the cells were treated with hit compounds at the indicated concentrations at 3–5 days after treatment, and the inhibitory effect of hit compounds on viral replication was determined by the titration of virions from the cell supernatant using a p24 […]™ Assay Kit (PerkinElmer) according to the manufacturer’s instructions. Cell viability was determined using resazurin-based PrestoBlue™ cell viability reagent (Thermo Fisher Scientific, Waltham, MA, USA) according to the manufacturer’s instructions. […]
# TZM-bl cells = experiment: in vitro; conditions: human, 24 h
# Procedure: as §3, §4
# [2] = tested on: peripheral blood mononuclear cells; experiment: Cell viability in PBMCs (PrestoBlue); format: cell-based; conditions: primary PBMCs, 72 h
# Procedure: as §1, §2
# HIV-1NL4-3 = experiment: HIV-1 infectivity in TZM-bl cells (LTR-driven F-Luc); format: cell-based; conditions: Human immunodeficiency virus 1, TZM-bl, 24 h, read-out: IC50 of Infectivity
# Procedure: as §3
# To determine the inhibitory effect of hit compounds on HIV-1 infection, we used TZM-bl cells (also referred to as JC53BL-13), which express HIV-1 receptors and contain the LTR-driven F-Luc gene controlled by HIV-1 infection, as described previously but with some minor modifications. Briefly, 1 × 10^4 TZM-bl cells cultured on 96-well plates were treated in triplicate wells with 1:2 serially diluted compounds at concentrations ranging from 0 to 12.5 µM. Subsequently, the cells were infected with HIV-1NL4-3 virus obtained from the transfection of 293T cells at a multiplicity of infection (MOI) of 1. At 24 h after infection, the inhibitory effect of the hit compounds on infectivity was determined using the Bright-Glo Luciferase Assay Kit (Promega). The dose–response data are expressed as a relative percentage compared to the DMSO control (vehicle). The inhibitory effects of the hit compounds on HIV-1 replication were determined as previously described. Briefly, 4 × 10^5 PBMCs pre-activated with phytohemagglutinin M (PHA-M) were washed with fresh media and then infected with HIV-1NL4-3 or HIV-1AD8 at an MOI of 0.1 by spinoculation for 2 h. After infection, the cells were treated with hit compounds at the indicated concentrations at 3–5 days after treatment, and the inhibitory effect of hit compounds on viral replication was determined by the titration of virions from the cell supernatant using a p24 […]™ Assay Kit (PerkinElmer) according to the manufacturer’s instructions. Cell viability was determined using resazurin-based PrestoBlue™ cell viability reagent (Thermo Fisher Scientific, Waltham, MA, USA) according to the manufacturer’s instructions. The data are presented as relative percentages compared to the DMSO control (vehicle). The experiments were performed in triplicate.
# HIV-1NL4-3 (X4-tropic) = experiment: HIV-1 replication assay in PBMCs (p24), HIV-1NL4-3; format: cell-based; conditions: PHA-preactivated PBMCs, MOI 0.1, 72 h; 460-G06 at 12.5-100 nM
# Procedure: as §1, §2
compound,measurement,setting,value
"CN1C/C=C/CCOc2cccc(c2)-c2ccnc(n2)Nc2cccc(c2)C1 [Hit 460-G06, (E)-6-methyl-12-oxa-3,6-diaza-2(4,2)-pyrimidine-1,4(1,3)-dibenzenacyclododecaphan-8-ene]","inhibition of viral replication, in words",HIV-1AD8 (R5-tropic),inhibited viral replication in a dose-dependent manner
same,"dose response of Tat activity (F-Luc), in words","[1]; 0-12.5 μM, bl-DTR cells",gradual inhibition of F-Luc activity
same,IC50,"[1]; Human immunodeficiency virus 1, 24 h, read-out: IC50 of Tat Activity",11 ± 1 nM
same,Kd,TAR RNA,132000 nM
same,"dissociation of ARM from TAR RNA, in words",TAR RNA,directly bound to the TAR RNA and efficiently dissociated the ARM from TAR RNA
same,CC50 at 24 h,in vitro,4940 ± 440 nM
same,concentration at which cytotoxicity is indicated,TZM-bl cells,over 0.1 μM
same,"cell viability / cytotoxicity in PBMCs, in words",[2],without a severe decrease in cell viability; also recorded: such cytotoxicity was not observed
same,IC50,HIV-1NL4-3,13 ± 3 nM
same,"inhibition of viral replication, in words",HIV-1NL4-3 (X4-tropic),inhibited viral replication in a dose-dependent manner
